Laboratory results: patent publication US12226405B2, “Compounds and compositions for inhibiting the activity of HIF2-alpha and their methods of use” (Novartis AG, priority 2020, dated 2025)

Tests used:
[1] = 25° C.; for hygroscopicity assignment (DVS): 0 to 95% RH
Protocol: Dynamic vapor sorption was performed using a SMS Advantage system. Approximately 10 mg of sample was subjected to varying humidities between 0% RH and 95% RH at 25° C. Evaluation was performed using the system software.

[2] = tested on: HIF2α-regulated expression of the endogenous target gene hEGLN3 in 786-O cells; test: Cellular iScript assay for HIF2α (quantitative RT-PCR of hEGLN3); assay type: cell-based, human; settings: Homo sapiens, 786-0, 48 hours incubation
How it was run: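 786-O cells were exposed to eleven 2-fold compound dilutions for 48 h at 37° C. Lysates underwent one-step TaqMan qRT-PCR for hEGLN3 with beta-actin as reference; 2^(−ΔΔCt) versus DMSO, as % of control, was fit with a four-parameter model to give IC50.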

[3] = tested on: HIF2α-dependent transcription in 786-O-HRE-Luc cells; test: In vitro cellular hypoxia response element (HRE) reporter gene assay (RGA) for HIF2α; assay type: cell-based, human; settings: Homo sapiens, 24 hours incubation
How it was run: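 Renal carcinoma cells carrying a 4×HRE-driven PEST-destabilised firefly luciferase were treated a day after seeding with eleven 2-fold compound dilutions (0.1% DMSO) for 24 h at 37° C. BrightGlo luminescence, background-subtracted and expressed as % of DMSO control, was fitted four-parametrically for IC50.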

[4] = molecular target: T1, HIF2α PAS-B domain (236-350, biotinylated on the N-terminus) (Homo sapiens (Human), UniProt Q99814); test: biochemical
T1 sequence (Q99814 236-350): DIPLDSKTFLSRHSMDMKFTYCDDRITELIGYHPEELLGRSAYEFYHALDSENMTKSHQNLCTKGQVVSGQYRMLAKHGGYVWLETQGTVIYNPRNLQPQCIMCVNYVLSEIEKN
Protocol: (§1) The assay buffer contained 50 mM Tris-HCl pH7 (Sigma), 20 mM NaCl (Fluka), 0.02% BSA (Sigma), 0.005% Triton X-100 (Pierce) and 1 mM DTT (Fluka). After a 30 min incubation period, 5 μL Streptavidin PVT SPA Beads (Perkin Elmer) at 1.2 mg/mL, diluted in the buffer, were added.

[5] = molecular target: T1, HIF2α PAS-B domain (236-350, biotinylated on the N-terminus); test: In vitro SPA with the PAS-B domain of HIF2α (competition binding with radio-ligand); settings: read-out: affinity of the non-labeled ligand, IC50
Protocol: as §1

FC(F)OC1=CC(C(F)(F)F)=CN2C[C@@]3(CCC(F)(F)c4c3ccnc4Cl)N=C12.O=C(O)/C=C/C(=O)O
hygroscopicity assignment (DVS) [1]: non-hygroscopic | mass difference between 0 and 95% RH (DVS) [1]: less than 0.1 weight %

FC(F)OC1=CC(C(F)(F)F)=CN2C[C@@]3(CCC(F)(F)c4c3ccnc4Cl)N=C12
hygroscopicity assignment (DVS) [1]: non-hygroscopic | mass difference between 0 and 95% RH (DVS) [1]: less than 0.05 weight %

O[C@@H]1c2c(ccc(Br)c2F)[C@]2(CN3C=C(C(F)(F)F)C=C(OC(F)F)C3=N2)CC1(F)F [Example 19, (1′S,4′R)-6′-bromo-8-(difluoromethoxy)-3′,3′,5′-trifluoro-6-(trifluoromethyl)-3′,4′-dihydro-2′H,3H-spiro[imidazo[1,2-a]pyridine-2,1′-naphthalen]-4′-ol]
IC50 [2]: 144 nM | IC50 [3]: 446 nM | IC50 [4]: 36 nM

O=C1c2c(F)cccc2[C@@]2(C[C@H]1F)CN1C=C(C(F)(F)F)C=C(OC(F)F)C1=N2 [Example 20, (1′S,3′R)-8-(difluoromethoxy)-3′,5′-difluoro-6-(trifluoromethyl)-2′H,3H-spiro[imidazo[1,2-a]pyridine-2,1′-naphthalen]-4′(3′H)-one]
IC50 [2]: 155 nM | IC50 [3]: 892 nM | IC50 [4]: 15 nM

N#CC1=CN2C[C@@]3(CSCc4c(F)cccc43)N=C2C(OC(F)F)=C1 [Example 68, (S)-8-(difluoromethoxy)-8′-fluoro-3H-spiro[imidazo[1,2-a]pyridine-2,4′-isothiochroman]-6-carbonitrile]
IC50 [2]: 111 nM | IC50 [3]: 670 nM | IC50 [4]: 11 nM

O=[N+]([O-])c1c(Nc2cc(F)cc(Cl)c2)ccc2nonc12 [N-(3-chloro-5-fluorophenyl-4-t)-4-nitrobenzo[c][1,2,5]oxadiazol-7-t-5-amine, reference compound]
IC50 [5]: 82 ± 18 nM
